# In ChEMBL document CHEMBL1201862, “PubChem BioAssay data set” (2004):
# Activity calls are given as the source filed them.
# What was measured:
# Major prion protein = Major prion protein (Homo sapiens, UniProt P04156); type: functional, cell-based
# Cytochrome P450 2D6 = Cytochrome P450 2D6 (Homo sapiens, UniProt P10635);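 note: CYP2D6 member of a cytochrome P450 panel assay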
# cells [1] = experiment: cells
# [2] = human group III sPLA2 inhibitors, dose response, biochemical, QFRET, IC50 (AID 743457);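 note: green fluorescence rise as the enzyme cleaves BODIPY PC-A2 in liposomes; potency for inhibition of the enzyme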
# Albumin = Albumin (Bos taurus, UniProt P02769); experiment: Counterscreen for inhibitors of T-cell receptor (TCR)-CD3 interaction: Fluorescence-based biochemical high throughput dose response assay to identify inhibitors of T-cell receptor (TCR)-CD3 interaction using a TAMRA-labeled BSA probe.; type: functional
# [3] = target: T1, Oxysterols receptor LXR-beta (Homo sapiens, UniProt P55055); type: functional, cell-based;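 note: Cell-based luminescence dose-response assay of agonist activity at LXR, run as a confirmatory counterscreen to a daf-12 agonist screen; HEK293 cells with Gal4-LXR fusion and GAL4-driven luciferase reporter; agonist potency from rising luciferase signal of a Gal4-LXR reporter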
# T1 sequence (P55055 whole entry): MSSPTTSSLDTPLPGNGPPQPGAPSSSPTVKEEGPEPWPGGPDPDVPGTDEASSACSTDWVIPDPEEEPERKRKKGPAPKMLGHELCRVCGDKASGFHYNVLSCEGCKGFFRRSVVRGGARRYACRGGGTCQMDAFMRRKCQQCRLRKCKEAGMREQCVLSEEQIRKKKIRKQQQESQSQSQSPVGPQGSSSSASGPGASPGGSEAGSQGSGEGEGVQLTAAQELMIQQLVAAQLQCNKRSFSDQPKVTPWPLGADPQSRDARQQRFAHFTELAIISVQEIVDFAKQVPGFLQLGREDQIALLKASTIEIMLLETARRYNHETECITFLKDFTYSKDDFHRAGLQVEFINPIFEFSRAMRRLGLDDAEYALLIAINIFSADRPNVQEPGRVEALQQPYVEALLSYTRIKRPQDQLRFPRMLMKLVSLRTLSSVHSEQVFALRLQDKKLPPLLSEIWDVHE
# cells [4] = experiment: cells; remark: listed apart in the source
# [5] = target: T2, Polyadenylate-binding protein 1 (Homo sapiens, UniProt P11940); experiment: PABP1 MLLE–PAM2 interaction inhibitors, dose response, miRNA deadenylation inhibitor project, biochemical, fluorescence polarization, Cy5-PAM2 peptide, secondary (AID 602260); type: functional; details: read-out: IC50_Mean
# [6] = target: T2, Polyadenylate-binding protein 1; experiment: PABP1 MLLE–PAM2 binding inhibitor potency, dose response, biochemical, fluorescence polarization, FITC-PAM2 peptide (AID 602259); type: functional; details: read-out: IC50_Mean
# Nonstructural protein 1 = Nonstructural protein 1 (Influenza A virus, UniProt Q194T2); type: functional, Influenza A virus (A/California/07/2009(H1N1))
# [7] = target: Peroxisome proliferator-activated receptor gamma/Nuclear receptor coactivator 1 (Homo sapiens, UniProt P37231); experiment: (§1) TR-FRET dose response biochemical High Throughput Screening assay for agonists of the steroid receptor coactivator 1 (SRC-1) recruitment by the peroxisome proliferator-activated receptor gamma (PPAR gamma): non-selective agonists. [Related pubchem assays (depositor defined):AID1300, AID1808, AID504735, AID631]; type: protein assay
# [8] = target: Peroxisome proliferator-activated receptor gamma/Nuclear receptor coactivator 3 (Homo sapiens, UniProt P37231); experiment: as §1, with “3 (SRC-3)” for “1 (SRC-1)”, “assays: 1301 (Confirmation screen.), 1048 (Primary screen.)]” for “assays (depositor defined):AID1300, AID1808, AID504735, AID631]”; type: functional
# [9] = target: Peroxisome proliferator-activated receptor gamma/Nuclear receptor coactivator 2 (Homo sapiens, UniProt P37231); experiment: TR-FRET dose response biochemical High Throughput Screening assay for agonists of the steroid receptor coactivator 2 (SRC-2) recruitment by the peroxisome proliferator-activated receptor gamma (PPAR gamma): non-selective agonists. [Related pubchem assays: 1297, 1032 ]; type: functional
# Cytochrome P450 2C9 = Cytochrome P450 2C9 (Homo sapiens, UniProt P11712)
# [10] = target: T3, Rac GTPase-activating protein 1 (Homo sapiens, UniProt Q9H0H5); experiment: MgcRacGAP GTPase-activating activity inhibitors, confirmation, biochemical, ADP Hunter fluorescence, primary and confirmatory (AID 624330); type: functional
# T3 sequence (Q9H0H5 whole entry): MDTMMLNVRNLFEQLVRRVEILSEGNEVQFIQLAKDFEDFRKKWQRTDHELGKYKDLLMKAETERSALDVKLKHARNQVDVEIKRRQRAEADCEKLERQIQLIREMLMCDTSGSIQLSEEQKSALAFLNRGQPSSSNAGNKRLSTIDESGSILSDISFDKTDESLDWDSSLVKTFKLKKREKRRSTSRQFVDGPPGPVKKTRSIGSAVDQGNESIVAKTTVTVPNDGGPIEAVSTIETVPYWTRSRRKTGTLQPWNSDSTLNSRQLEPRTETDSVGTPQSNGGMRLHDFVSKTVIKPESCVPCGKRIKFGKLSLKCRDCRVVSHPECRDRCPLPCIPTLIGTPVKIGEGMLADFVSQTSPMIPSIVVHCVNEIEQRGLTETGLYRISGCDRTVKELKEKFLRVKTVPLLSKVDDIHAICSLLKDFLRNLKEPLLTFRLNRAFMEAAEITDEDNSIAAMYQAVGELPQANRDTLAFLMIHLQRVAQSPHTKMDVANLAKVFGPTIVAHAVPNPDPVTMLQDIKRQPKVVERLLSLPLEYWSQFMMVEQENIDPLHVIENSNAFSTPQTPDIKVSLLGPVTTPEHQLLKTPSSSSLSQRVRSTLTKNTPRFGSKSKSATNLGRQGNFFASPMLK
# Aminopeptidase N = target: T4, Aminopeptidase N (Plasmodium falciparum FcB1/Columbia, UniProt O96935); experiment: P. falciparum M1AAP inhibitors, biochemical, fluorogenic H-Leu-NHMec substrate, 1536-well (AID 1445); parameters: species or system Plasmodium falciparum 3D7, 3D7
# T4 sequence (O96935 whole entry): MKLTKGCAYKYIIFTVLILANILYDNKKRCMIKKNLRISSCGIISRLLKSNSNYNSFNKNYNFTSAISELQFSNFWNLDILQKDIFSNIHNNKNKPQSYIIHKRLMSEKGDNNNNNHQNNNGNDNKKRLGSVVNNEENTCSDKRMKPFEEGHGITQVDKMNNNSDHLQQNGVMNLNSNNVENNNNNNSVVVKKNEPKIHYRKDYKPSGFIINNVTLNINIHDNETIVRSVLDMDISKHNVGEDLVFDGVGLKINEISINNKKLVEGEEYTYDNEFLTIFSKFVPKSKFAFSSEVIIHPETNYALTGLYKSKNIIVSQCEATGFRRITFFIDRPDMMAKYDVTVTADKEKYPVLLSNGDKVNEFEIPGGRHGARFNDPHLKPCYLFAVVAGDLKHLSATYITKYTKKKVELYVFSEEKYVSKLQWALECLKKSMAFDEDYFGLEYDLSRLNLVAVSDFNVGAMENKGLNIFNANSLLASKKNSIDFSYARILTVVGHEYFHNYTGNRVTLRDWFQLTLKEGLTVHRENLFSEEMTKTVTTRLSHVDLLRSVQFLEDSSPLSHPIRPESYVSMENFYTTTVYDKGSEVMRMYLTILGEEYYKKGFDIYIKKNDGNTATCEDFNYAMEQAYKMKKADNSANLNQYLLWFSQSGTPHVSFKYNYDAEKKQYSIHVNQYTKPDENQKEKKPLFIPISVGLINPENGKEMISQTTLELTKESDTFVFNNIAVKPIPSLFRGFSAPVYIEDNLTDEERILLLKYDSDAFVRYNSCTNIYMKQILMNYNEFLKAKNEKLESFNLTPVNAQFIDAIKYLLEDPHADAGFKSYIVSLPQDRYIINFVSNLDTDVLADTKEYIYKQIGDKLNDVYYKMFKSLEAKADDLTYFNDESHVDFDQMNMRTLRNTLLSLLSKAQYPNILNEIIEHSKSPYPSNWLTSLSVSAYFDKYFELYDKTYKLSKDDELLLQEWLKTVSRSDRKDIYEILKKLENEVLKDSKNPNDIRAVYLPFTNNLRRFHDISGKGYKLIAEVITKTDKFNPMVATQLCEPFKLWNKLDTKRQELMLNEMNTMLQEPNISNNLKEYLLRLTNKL
# [11] = test system: Streptococcus sp. 'group A'; experiment: growth inhibition of control SK(-) GAS strain, dose response, counter-screen for streptokinase expression inhibitor project, luminescence, kanamycin, BacTiterGlo, confirmation (AID 1900); type: functional, organism-based
# Streptococcus = experiment: Group A Streptococcus viability loss, dose response, counter-screen for streptokinase expression inhibitor project, luminescence, BacTiterGlo (AID 1915); type: functional, organism-based;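 note: potency for reduction of bacterial viability or growth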
# [12] = HEK293T cytotoxicity, dose response, cytotoxicity control for miR-122 modulator project, cell-based, activator set, cherry-pick (AID 720690); type: functional;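 note: HEK293T human cells scored for general mammalian cytotoxicity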
# [13] = target: T5, Histone-lysine N-methyltransferase NSD2 (Homo sapiens, UniProt O96028); type: biochemical
# T5 sequence (O96028 whole entry): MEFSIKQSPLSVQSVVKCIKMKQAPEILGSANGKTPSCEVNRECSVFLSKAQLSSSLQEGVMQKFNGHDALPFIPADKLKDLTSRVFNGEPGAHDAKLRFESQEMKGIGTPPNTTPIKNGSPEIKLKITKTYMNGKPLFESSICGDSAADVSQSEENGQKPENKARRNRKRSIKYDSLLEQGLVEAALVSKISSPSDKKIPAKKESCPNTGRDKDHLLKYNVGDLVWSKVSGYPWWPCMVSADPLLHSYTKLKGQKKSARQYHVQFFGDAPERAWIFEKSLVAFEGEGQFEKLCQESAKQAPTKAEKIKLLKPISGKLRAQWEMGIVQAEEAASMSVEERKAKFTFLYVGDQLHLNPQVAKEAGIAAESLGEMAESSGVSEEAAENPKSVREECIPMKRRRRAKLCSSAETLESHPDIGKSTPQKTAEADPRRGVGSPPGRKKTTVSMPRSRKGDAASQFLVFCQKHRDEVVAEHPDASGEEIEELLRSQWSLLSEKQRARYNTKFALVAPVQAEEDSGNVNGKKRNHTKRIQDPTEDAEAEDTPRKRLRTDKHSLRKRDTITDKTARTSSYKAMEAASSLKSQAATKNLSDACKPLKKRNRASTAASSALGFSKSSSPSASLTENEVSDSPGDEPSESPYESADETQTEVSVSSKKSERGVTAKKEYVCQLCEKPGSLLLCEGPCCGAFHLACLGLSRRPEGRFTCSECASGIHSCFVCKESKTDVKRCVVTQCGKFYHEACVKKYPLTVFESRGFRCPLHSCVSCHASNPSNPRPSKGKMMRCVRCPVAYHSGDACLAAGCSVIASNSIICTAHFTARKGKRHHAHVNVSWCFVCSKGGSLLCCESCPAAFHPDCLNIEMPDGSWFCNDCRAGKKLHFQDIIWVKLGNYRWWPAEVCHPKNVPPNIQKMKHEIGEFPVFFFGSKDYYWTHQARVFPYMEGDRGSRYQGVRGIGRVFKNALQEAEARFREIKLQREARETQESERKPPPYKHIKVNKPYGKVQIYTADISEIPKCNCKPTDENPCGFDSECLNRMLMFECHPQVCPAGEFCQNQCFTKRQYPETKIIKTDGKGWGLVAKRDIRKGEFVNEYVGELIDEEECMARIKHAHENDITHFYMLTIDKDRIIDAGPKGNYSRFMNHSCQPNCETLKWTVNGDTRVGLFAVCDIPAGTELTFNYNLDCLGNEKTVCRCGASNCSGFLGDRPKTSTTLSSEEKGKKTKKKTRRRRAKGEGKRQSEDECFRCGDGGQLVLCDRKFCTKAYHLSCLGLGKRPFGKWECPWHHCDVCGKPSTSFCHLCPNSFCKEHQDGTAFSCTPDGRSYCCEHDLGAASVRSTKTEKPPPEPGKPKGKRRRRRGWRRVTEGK
structure (smiles),measurement,setting,value
Clc1cccc(Nc2ncnc3ccc(Br)cc23)c1,IC50,Major prion protein,6.28 µM (active)
same,AC50,Cytochrome P450 2D6,31.6 µM (inconclusive)
same,IC50,cells [1],122 µM (inactive)
CCN(CC)S(=O)(=O)c1ccc(NC(=O)CSc2ncnc3ccccc23)cc1,IC50,Major prion protein,7.17 µM (active)
same,IC50,cells [1],> 138 µM (inactive)
CCOc1cc(NC(=O)C(C)C)c(OCC)cc1N=C(S)NCc1ccccc1,IC50,[2],> 122 µM (inactive)
COc1cccc(OCC(=O)NNC(=O)c2ccc3ccccc3c2O)c1,IC50,Albumin,> 94.1 µM (inactive)
same,IC50,[2],> 122 µM (inactive)
COc1ccc(-c2cc3ccccc3c(=O)o2)cc1,EC50,[3],> 67.5 µM (inactive)
same,EC50,cells [4],> 67.5 µM (inactive)
CC(C)c1nc(SCC(=O)N2CC(=O)Nc3ccccc32)c2ccccc2n1,IC50,Major prion protein,2.41 µM (active)
same,IC50,cells [1],67.3 µM (inactive)
O=C(CSc1ncnc2ccccc12)NCc1ccco1,IC50,[5],> 66 µM (inactive)
same,IC50,[6],> 66 µM (inactive)
same,IC50,Major prion protein,6.83 µM (active)
same,IC50,cells [1],> 138 µM (inactive)
O=C1c2ccccc2C(=O)c2c1cccc2N1CCOCC1,IC50,Nonstructural protein 1,19.7 µM (active)
same,IC50,[2],> 122 µM (inactive)
c1ccc(Cc2nnc(Sc3ccccc3)c3ccccc23)cc1,EC50,[7],> 79.4 µM (inactive)
same,EC50,[8],> 79.4 µM (not active)
same,EC50,[9],2.35 µM (active)
same,IC50,Major prion protein,6.51 µM (active)
same,AC50,Cytochrome P450 2C9,25.1 µM (inconclusive)
same,IC50,cells [1],64 µM (inactive)
Cc1ccc(Nc2nnc(S)s2)c(C)c1,IC50,[10],154 µM (active)
same,IC50,[2],> 122 µM (inactive)
Cc1[nH]n(-c2ccccc2)c(=O)c1N=Nc1ccccc1O,IC50,Aminopeptidase N,< 1 µM (active)
same,EC50,[11],1.48 µM (active)
same,EC50,Streptococcus,2.12 µM (active)
same,IC50,Albumin,> 94.1 µM (inactive)
COCC(=O)N1[C@H](CO)[C@@H](c2ccccc2)[C@H]1CNC(=O)c1ccccn1,AC50,[12],37.2 µM (active)
O=C(Nc1ccc(Cl)cc1)N1C[C@H]2[C@@H](c3ccccc31)[C@H](CO)N2CC1CCCCC1,AC50,[12],28.7 µM (active)
CC1CCCC(C)N1/N=C/c1ccc(O)c(O)c1 (centres undefined),IC50,Albumin,> 94.1 µM (inactive)
same,AC50,[13],9.77 µM (active)
